{"source": "patent US20230372364A1", "about": "“METHOD OF TREATING GABA MEDIATED DISORDERS” (Eliem Therapeutics (UK) Ltd, priority 2020, published 2023)", "key": {"[1]": {"tested_on": "rodent models of seizure, anxiety, depression and EEG biomarker", "test": "Preclinical models of depression, anxiety, seizure and EEG (overall effective dose)", "assay_type": "in vivo"}, "5-HT2A receptor": {"biological_target": "5-HT2A receptor (Homo sapiens, UniProt P28223)", "sequence (P28223 whole entry, looked up)": "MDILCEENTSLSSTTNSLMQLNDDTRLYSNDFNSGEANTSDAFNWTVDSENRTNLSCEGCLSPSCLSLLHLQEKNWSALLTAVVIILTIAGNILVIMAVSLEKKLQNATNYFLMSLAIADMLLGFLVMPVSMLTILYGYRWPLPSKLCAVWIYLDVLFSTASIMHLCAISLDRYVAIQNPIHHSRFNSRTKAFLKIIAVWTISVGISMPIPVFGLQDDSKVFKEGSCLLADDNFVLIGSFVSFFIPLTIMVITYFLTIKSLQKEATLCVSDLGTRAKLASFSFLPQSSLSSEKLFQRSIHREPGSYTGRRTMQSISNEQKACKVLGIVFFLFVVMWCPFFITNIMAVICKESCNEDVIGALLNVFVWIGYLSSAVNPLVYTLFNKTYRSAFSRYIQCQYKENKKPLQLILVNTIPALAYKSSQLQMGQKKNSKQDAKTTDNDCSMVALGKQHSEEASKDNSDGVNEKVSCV", "test": "Activity at the 5-HT2A receptor", "conditions": "previously shown", "description": "(§1) The compound of Formula (I) is believed to have binding affinity at the GABA-gated Cl-channel, the kappa opioid receptor, the 5-HT2A receptor, and the androgen receptor. The compound of Formula (I) has previously shown activity at all 18 GABAA receptor channels and the kappa opioid receptor. The compound of Formula (I) had previously shown no activity at the 5-HT2A receptor. Activity at the androgen receptor is has not yet been well studied."}, "human subjects": {"tested_on": "human subjects", "test": "Single ascending oral dose safety and tolerability in humans", "assay_type": "in vivo"}, "[2]": {"tested_on": "all 18 GABAA receptor channels", "test": "Activity at GABAA receptor channels", "conditions": "previously shown", "description": "as §1"}}, "data": [{"molecule": "C[C@@]1(O)CC[C@@]2(C)[C@@H](CC[C@@H]3[C@@H]2CC[C@]2(C)[C@@H](C(=O)Cn4cc(C#N)cn4)CC[C@@H]32)C1", "note": "[CV-10155, 1-[2-[(3R,5S,8R,9S,10S,13S,14S,17S)-3-hydroxy-3,10,13-trimethyl-1,2,4,5,6,7,8,9,11,12,14,15,16,17-tetradecahydrocyclopenta[a]phenanthren-17-yl]-2-oxoethyl]pyrazole-4-carbonitrile]", "values": [{"measurement": "dose from which robust efficacy was observed", "setting": "[1]; in most models", "result": "≥ 3", "unit": "mg/kg"}, {"measurement": "minimal effective dose (MED)", "setting": "[1]; preclinical models of depression, anxiety, seizure", "result": 1, "unit": "mg/kg"}, {"measurement": "activity at the 5-HT2A receptor", "setting": "5-HT2A receptor", "result": "no activity"}, {"measurement": "dose-limiting adverse event", "setting": "human subjects", "result": "Ataxia"}, {"measurement": "SAD MTD", "setting": "human subjects; single ascending dose", "result": "ETX-155 135 mg SAD MTD"}, {"measurement": "adverse events observed at 200 mg", "setting": "human subjects; single oral dose 200 mg, fasted", "result": "ataxia, tremor and tachycardia"}, {"measurement": "most common adverse events", "setting": "human subjects; single oral dose, mild to moderate, only observed at the highest doses", "result": "Dizziness and somnolence"}, {"measurement": "dose-limiting adverse events", "setting": "human subjects; single oral dose, range of 5-135 mg", "result": "No dose-limiting adverse events were observed"}, {"measurement": "activity at all 18 GABAA receptor channels", "setting": "[2]", "result": "activity"}]}]}
